Target: T1, histamine H4 receptor (Homo sapiens, UniProt Q9H3N8)
T1 construct: expressed in transfected cells; host or cells: HEK293SFM cells (membrane preparation)
Experiment: Inhibition of histamine H4 receptor (Table A1; H4 membrane binding assay)
Conditions: for IC50: histamine H4 receptor, "> a" = exceeds experiment limit
Summary of the method: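 Radioligand binding was measured by filtration through PEI-treated GF/B filters with scintillation counting, using 1000× unlabeled ligand to define nonspecific binding. Membranes were prepared from HEK293SFM cells recombinantly expressing human H4 in ice-cold 50 mM Tris-HCl, pH 7.5, plus protease inhibitors.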

IC50 [nM]	inhibition at 1 µM [%]	SMILES
85	–	CC1Cc2ccc(-c3ccc(C(=O)N4CC[C@H](F)C4)nc3)cc2CN1c1cc(N2CCN(C)CC2)nc(N)n1 (single isomer, unassigned) [Example 154A]
26	–	CC1Cc2ccc(-c3cnn(CCC#N)c3)cc2CN1c1cc(N2CCN(C)CC2)nc(N)n1 (single isomer, unassigned) [Example 96A, 3-(4-{2-[2-amino-6-(4-methylpiperazin-1-yl)pyrimidin-4-yl]-3-methyl-1,2,3,4-tetrahydroisoquinolin-7-yl}-1H-pyrazol-1-yl)propanenitrile]
172	–	CC1Cc2ccc(-c3cnn(CC4CCCO4)c3)cc2CN1c1cc(N2CCN(C)CC2)nc(N)n1 (single isomer, unassigned) [Example 99B, 4-(4-Methylpiperazin-1-yl)-6-[3-methyl-7-[1-(tetrahydrofuran-2-ylmethyl)-1H-pyrazol-4-yl]-3,4-dihydroisoquinolin-2(1H)-yl]pyrimidin-2-amine]
56	–	CC1Cc2ccc(-c3cnn(C)c3)cc2CN1c1cc(N2CCCN(C)CC2)nc(N)n1 (stereo not drawn) [Example 125, 4-(4-Methyl-1,4-diazepan-1-yl)-6-[3-methyl-7-(1-methyl-1H-pyrazol-4-yl)-3,4-dihydroisoquinolin-2(1H)-yl]pyrimidin-2-amine]
543	–	Cc1cccc(Nc2ccc3c(c2)CN(c2cc(N4CCN(C)CC4)nc(N)n2)CC3)n1 [Example 16, 2-[2-Amino-6-(4-methylpiperazin-1-yl)pyrimidin-4-yl]-N-(6-methylpyridin-2-yl)-1,2,3,4-tetrahydroisoquinolin-7-amine]
24	–	CC1Cc2ccc(-c3cc(C(=O)N(C)CCN(C)C)n(C)c3)cc2CN1c1cc(N2CCN(C)CC2)nc(N)n1 (single isomer, unassigned) [Example 93, 4-{2-[2-Amino-6-(4-methylpiperazin-1-yl)pyrimidin-4-yl]-3-methyl-1,2,3,4-tetrahydroisoquinolin-7-yl}-N-[2-(dimethylamino)ethyl]-N,1-dimethyl-1H-pyrrole-2-carboxamide]
186	–	CN1CCN(c2cc(N3CCc4ccc(N5CCC(c6ccncc6)CC5)cc4C3)nc(N)n2)CC1 [Example 38, 4-(4-Methylpiperazin-1-yl)-6-[7-(4-pyridin-4-ylpiperidin-1-yl)-3,4-dihydroisoquinolin-2(1H)-yl]pyrimidin-2-amine]
172	–	CC1Cc2ccc(-c3ccc(C(=O)N4CC[C@@H](O)C4)nc3)cc2CN1c1cc(N2CCN(C)CC2)nc(N)n1 (single isomer, unassigned) [Example 56B]
–	56	CC1Cc2ccc(-c3cnn(C4CCS(=O)(=O)C4)c3)cc2CN1c1cc(N2CCN(C)CC2)nc(N)n1 (stereo not drawn) [Example 98B, 4-[7-[1-(1,1-dioxidotetrahydro-3-thienyl)-1H-pyrazol-4-yl]-3-methyl-3,4-dihydroisoquinolin-2(1H)-yl]-6-(4-methylpiperazin-1-yl)pyrimidin-2-amine]
26	–	CC1Cc2ccc(-c3cc(C(=O)N(C)C)n(C)c3)cc2CN1c1cc(N2CCN(C)CC2)nc(N)n1 (single isomer, unassigned) [Example 89A, 4-{2-[2-Amino-6-(4-methylpiperazin-1-yl)pyrimidin-4-yl]-3-methyl-1,2,3,4-tetrahydroisoquinolin-7-yl}-N,1N,1-trimethyl-1H-pyrrole-2-carboxamide]
15.3	–	CC1Cc2ccc(-c3ccn(Cc4ccccn4)n3)cc2CN1c1cc(N2CCN(C)CC2)nc(N)n1 (single isomer, unassigned) [Example 155, 4-(4-Methylpiperazin-1-yl)-6-[3-methyl-7-[1-(pyridin-2-ylmethyl)-1H-pyrazol-3-yl]-3,4-dihydroisoquinolin-2(1H)-yl]pyrimidin-2-amine]
38	–	CC1Cc2ccc(-c3ncc(C(=O)N(C)C)s3)cc2CN1c1cc(N2CCN(C)CC2)nc(N)n1 (stereo not drawn) [Example 134, 2-{2-[2-Amino-6-(4-methylpiperazin-1-yl)pyrimidin-4-yl]-3-methyl-1,2,3,4-tetrahydroisoquinolin-7-yl}-N,N-dimethyl-1,3-thiazole-5-carboxamide]

The next lines start with the compound.

SMILES	IC50 [nM]	inhibition at 1 µM [%]
CNC(=O)c1cc(-c2ccc3c(c2)CN(c2cc(N4CCN(C)CC4)nc(N)n2)C(C)C3)cn1C (single isomer, unassigned) [Example 87B, 4-{2-[2-Amino-6-(4-methylpiperazin-1-yl)pyrimidin-4-yl]-3-methyl-1,2,3,4-tetrahydroisoquinolin-7-yl}-N,1-dimethyl-1H-pyrrole-2-carboxamide]	–	69
CN1CCN(c2cc(N3CCc4ccc(-c5ccc(C(=O)NCC(C)(C)O)nc5)cc4C3)nc(N)n2)CC1 [Example 19, 5-{2-[2-Amino-6-(4-methylpiperazin-1-yl)pyrimidin-4-yl]-1,2,3,4-tetrahydroisoquinolin-7-yl}-N-(2-hydroxy-2-methylpropyl)pyridine-2-carboxamide]	110	–
CC1Cc2ccc(-c3ccnc(C(=O)N4CCCC4)c3)cc2CN1c1cc(N2CCN(C)CC2)nc(N)n1 (single isomer, unassigned) [Example 64A, 4-(4-methylpiperazin-1-yl)-6-[3-methyl-7-[2-(pyrrolidin-1-ylcarbonyl)pyridin-4-yl]-3,4-dihydroisoquinolin-2(1H)-yl]pyrimidin-2-amine]	116	–
CC1Cc2ccc(C3CCN(C(=O)N(C)C)CC3)cc2CN1c1cc(N2CCN(C)CC2)nc(N)n1 (stereo not drawn) [Example 141, 4-{2-[2-Amino-6-(4-methylpiperazin-1-yl)pyrimidin-4-yl]-3-methyl-1,2,3,4-tetrahydroisoquinolin-7-yl}-N,N-dimethylpiperidine-1-carboxamide]	40	–
CNC(=O)c1ccc(-c2ccc3c(c2)CN(c2cc(N4CCN(C)CC4)nc(N)n2)C(C)C3)cn1 (single isomer, unassigned) [Example 49A]	45	–
CC1Cc2ccc(-c3cncc(C(=O)N4CC(O)C4)c3)cc2CN1c1cc(N2CCN(C)CC2)nc(N)n1 (single isomer, unassigned) [Example 75, 1-[(5-{2-[2-Amino-6-(4-methylpiperazin-1-yl)pyrimidin-4-yl]-3-methyl-1,2,3,4-tetrahydroisoquinolin-7-yl}pyridin-3-yl)carbonyl]azetidin-3-ol]	100	–
CC1Cc2ccc(-c3ccnc(C(=O)N4CC[C@H](F)C4)c3)cc2CN1c1cc(N2CCN(C)CC2)nc(N)n1 (single isomer, unassigned) [Example 66A]	64	–
CC1Cc2ccc(-c3ccn(C)n3)cc2CN1c1cc(N2CCN(C)CC2)nc(N)n1 (single isomer, unassigned) [Example 85A, 4-[3-Methyl-7-(1-methyl-1H-pyrazol-3-yl)-3,4-dihydroisoquinolin-2(1H)-yl]-6-(4-methylpiperazin-1-yl)pyrimidin-2-amine]	20	–
COCCn1cc(-c2ccc3c(c2)CN(c2cc(N4CCN(C)CC4)nc(N)n2)C(C)C3)cn1 (single isomer, unassigned) [Example 112, 4-[7-[1-(2-Methoxyethyl)-1H-pyrazol-4-yl]-3-methyl-3,4-dihydroisoquinolin-2(1H)-yl]-6-(4-methylpiperazin-1-yl)pyrimidin-2-amine]	40	–
CN1CCN(c2cc(N3CCc4ccc(NC(=O)N5CCCCC5)cc4C3)nc(N)n2)CC1 [Example 35, N-{2-[2-Amino-6-(4-methylpiperazin-1-yl)pyrimidin-4-yl]-1,2,3,4-tetrahydroisoquinolin-7-yl}piperidine-1-carboxamide]	–	66
CN1CCN(c2cc(N3CCc4ccc(C(=O)N(C)C)cc4C3)nc(N)n2)CC1 [Example 27, 2-[2-Amino-6-(4-methylpiperazin-1-yl)pyrimidin-4-yl]-N,N-dimethyl-1,2,3,4-tetrahydroisoquinoline-7-carboxamide]	670	–
CC1Cc2ccc(-c3ccnc(C(=O)N4CCC(N(C)C)C4)c3)cc2CN1c1cc(N2CCN(C)CC2)nc(N)n1 (single isomer, unassigned) [Example 67A, 4-[7-(2-{[3-(dimethylamino)pyrrolidin-1-yl]carbonyl}pyridin-4-yl)-3-methyl-3,4-dihydroisoquinolin-2(1H)-yl]-6-(4-methylpiperazin-1-yl)pyrimidin-2-amine]	56	–
CCn1ccc(-c2ccc3c(c2)CN(c2cc(N4CCN(C)CC4)nc(N)n2)C(C)C3)n1 (single isomer, unassigned) [Example 86A, 4-[7-(1-Ethyl-1H-pyrazol-3-yl)-3-methyl-3,4-dihydroisoquinolin-2(1H)-yl]-6-(4-methylpiperazin-1-yl)pyrimidin-2-amine]	40	–
CC1Cc2ccc(-c3ccn(C)n3)cc2CN1c1cc(N2CCN(C)CC2)nc(N)n1 (single isomer, unassigned) [Example 85B, 4-[3-Methyl-7-(1-methyl-1H-pyrazol-3-yl)-3,4-dihydroisoquinolin-2(1H)-yl]-6-(4-methylpiperazin-1-yl)pyrimidin-2-amine]	104	–
CC1Cc2ccc(-c3ccnc(C(=O)N[C@H](C)CO)c3)cc2CN1c1cc(N2CCN(C)CC2)nc(N)n1 (single isomer, unassigned) [Example 69]	66	–
CC1Cc2ccc(-c3cnn(CCC(N)=O)c3)cc2CN1c1cc(N2CCN(C)CC2)nc(N)n1 (single isomer, unassigned) [Example 114, 3-(4-{2-[2-Amino-6-(4-methylpiperazin-1-yl)pyrimidin-4-yl]-3-methyl-1,2,3,4-tetrahydroisoquinolin-7-yl}-1H-pyrazol-1-yl)propanamide]	34	–
CN1CCN(c2cc(N3CCc4ccc(-n5cc(Cl)cn5)cc4C3)nc(N)n2)CC1 [Example 14, 4-[7-(4-Chloro-1,1-pyrazol-1-yl)-3,4-dihydroisoquinolin-2(1H)-yl]-6-(4-methylpiperazin-1-yl)pyrimidin-2-amine]	223	–
CN[C@@H]1CCN(c2cc(N3Cc4cc(-c5cnn(C)c5)ccc4CC3C)nc(N)n2)C1 (stereo partly drawn) [Example 124, 4-[(3R)-3-(Methylamino)pyrrolidin-1-yl]-6-[3-methyl-7-(1-methyl-1H-pyrazol-4-yl)-3,4-dihydroisoquinolin-2(1H)-yl]pyrimidin-2-amine]	121	–

Source: patent US20130244999A1, “Substituted Heterocyclic Compounds” (Incyte Corporation, priority 2008, published 2013)
